Like-named read-outs stand apart in the source and are kept apart here.
Key:
[1] = molecular target: S. aureus cystathionine-γ-lyase (bCSE) (Staphylococcus aureus, UniProt A0A0H3K724); assay: IC50 assay: inhibition of H2S production by purified bCSE, WSP5 fluorescent probe; type: biochemical
Experimental: (§1) Fluorescence spectrophotometry-based inhibitory activity toward purified bCSE and hCSE was measured in a 96-well nonbinding black plate (Greiner, Kremsmunster, Austria) at 100 μL of the reaction mixture per well. bCSE and hCSE (0.02 μM) were preincubated in a thermoshaker (Biosan, Riga, Latvia) (30 °C, 300 rpm) for 40 min in 50 mM sodium phosphate buffer (pH 8.0), supplemented with 10 μM pyridoxal 5′-phosphate (Sigma-Aldrich, St. Louis, MO, USA), 0.1% of Tween 20 (Sigma-Aldrich, St. Louis, MO, USA), and 1.2 μM Washington State Probe-5 (Cayman Chemical, Ann Arbor, MI, USA) (excitation: 500 nm, emission: 530 nm) at different concentrations of a tested inhibitor. The reaction was initiated by the addition of 100 μM L-cysteine (TCI, Chennai, Tamil Nadu, India) in 50 mM sodium phosphate buffer pH 8.0 to the reaction mixture, and the enzymatic activity was monitored for 12 h using a CLARIOstar Plus instrument (BMG LABTECH GmbH, Ortenberg, Germany). The 100 µM L-cysteine concentration used in the experiments corresponds to the maximal reported intracellular concentration in bacteria. The data were normalized to the positive and negative controls, and IC50 values were obtained by fitting to a four-parameter sigmoidal curve (inhibitor vs. response, variable slope model) in GraphPad Prism 8 software (GraphPad by Dotmatics, Boston, MA, USA). Each experiment was conducted with 2–3 technical replicates. IC50 values were means of at least two independent experiments.
(§2) For the production of S. aureus cystathionine-γ-lyase (bCSE) and of human cystathionine-γ-lyase (hCSE), plasmids pSUMO:saCSE (Addgene # 54336) and pNIC28-Bsa4 (Addgene # 42365) were employed. Cultivation of a competent E. coli cell strain (Thermo Fisher Scientific, Waltham, MA, USA), transformed with a target plasmid, was carried out on a selective solid medium with kanamycin. Bacterial cells harboring the plasmid vector were cultured at 37 °C and 180 rpm until OD600 = 0.65. Then, isopropyl β-D1-thiogalactopyranoside (IPTG) was added to a final concentration of 1 mM. To obtain bCSE, the cells were cultured for 3.5 h at 37 °C; to obtain hCSE, the cells were cultured for 18–20 h at 25 °C. After centrifugation, cells were resuspended in a buffer composed of 50 mM Tris–HCl, at a pH of 8.0, and 300 mM sodium chloride. After that, the cells were lysed by ultrasonication, with a pulse duration of 15 s and an interval between pulses of 15 s. The amplitude of the ultrasonic vibrations was 50% of the maximum. After lysis, samples were centrifuged for 15 min (20,000× g at 4 ℃). The pH of the supernatant obtained after the centrifugation was adjusted to 7.5 by the addition of a 1 M solution of Tris–OH. Then, the test sample was subjected to filtration through a polyethersulfone membrane with a pore diameter of 0.22 μm.

[2] = molecular target: T1, human cystathionine-γ-lyase (hCSE) (Homo sapiens, UniProt P32929); assay: IC50 assay: inhibition of H2S production by purified hCSE, WSP5 fluorescent probe; type: biochemical
T1 construct: His6-TEV (N, cleaved yes); host or cells: E. coli
T1 sequence (P32929 whole entry): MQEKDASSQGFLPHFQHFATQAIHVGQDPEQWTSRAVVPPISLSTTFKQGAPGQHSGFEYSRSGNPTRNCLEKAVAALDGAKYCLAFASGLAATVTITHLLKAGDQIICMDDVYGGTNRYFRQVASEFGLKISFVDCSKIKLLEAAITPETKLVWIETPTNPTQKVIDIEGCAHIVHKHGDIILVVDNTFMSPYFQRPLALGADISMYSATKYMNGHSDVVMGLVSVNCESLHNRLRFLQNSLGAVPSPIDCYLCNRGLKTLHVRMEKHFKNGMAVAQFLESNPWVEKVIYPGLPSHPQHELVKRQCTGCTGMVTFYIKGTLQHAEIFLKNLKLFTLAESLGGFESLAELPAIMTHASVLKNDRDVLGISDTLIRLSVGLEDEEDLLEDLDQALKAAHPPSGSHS
Experimental: as §1, §2

[3] = system: HEK293 cells; assay: HEK293 cytotoxicity assay (Alamar Blue); type: cell-based; settings: HEK293, 72 h
Experimental: The HEK 293 cell line was obtained from the European Collection of Authenticated Cell Cultures (ECACC, cat. # 85120602, Salisbury, UK). The cells were grown in a monolayer culture in Dulbecco’s Modified Eagle’s Medium (DMEM) (PanEco, Moscow, Russia), supplemented with 2 mM L-glutamine, 1% of a penicillin/streptomycin solution (Capricorn Scientific, Ebsdorfergrund, Germany), and 10% of heat inactivated fetal bovine serum (HyClone, Cytiva, Marlborough, MA, USA) in a humidified atmosphere containing 5% of CO2 at 37 °C (Binder, Germany). For the assay, HEK 293 cells were seeded in a 96-well plate (Corning, NY, USA) in 100 μL of the complete culture medium, at a final density of 2 × 10^3 cells/well, and were cultured for 24 h for proper attachment. Subsequently, the medium was removed, and the cells were exposed to a tested inhibitor at different concentrations for 72 h in 100 μL of the fresh complete culture medium. The sensitivity of the cells to the compounds was detected using the vital dye Alamar Blue (Invitrogen, San Diego, CA, USA). The Alamar Blue assay was performed according to the procedure described by O’Brien et al.. After incubation with the tested bCSE inhibitors, 10 μL of the Alamar Blue reagent was added into each well, the cell culture plates were returned to the humidified incubator, and the fluorescence was read after 3 h. The plates were exposed to an excitation light of 545 nm wavelength, and emission at 600 nm was measured on the CLARIOstar Plus (BMG LABTECH GmbH, Ortenberg, Germany). To determine half-maximal cytotoxic concentration (CC50), a four-parameter sigmoidal curve model (GraphPad Prism 8 software) was fitted to the measurement data.

[4] = molecular target: bCSE; design: method as in PMID 34112687; settings: NL2 is from ref 13; read-out: experimental inhibition constant; cited from earlier work
[5] = system: A. baumannii GIMC5509:ABT-52Ts19; assay: MIC of antibiotics alone and with potentiators, clinical isolate
Experimental: (§3) Overnight (ON) culture of a specific strain was grown in the liquid Luria–Bertani nutrient medium (LB broth, BD Difco) for 18 h at 37 °C, with agitation at 180 rpm using an Innova 44R orbital shaker (Eppendorf, Hamburg, Germany). After a certain period, 50 µL of the ON culture was transferred into 5 mL of the LB medium and grown for 3 h at 37 °C with agitation. Growth in the liquid medium was assessed by means of turbidity of the suspension, measured using a Densi-La-Meter II densitometer (Erba Lachema s.r.o., Brno, Czech Republic). Then, the bacterial suspension was diluted to the concentration 10^6 cells/mL with sterile LB and used as a seed culture [38, 39].
(§4) For the assessment of MICs, 96-well microtiter plates were utilized at 200 µL of a medium per well. Each well was filled with 100 µL of the seed culture. After that, 10 µL of a solution of each tested synthetic compound (potentiators) was added into each experimental well. Finally, 90 µL of twofold serial dilutions of an antibiotic in a sterile LB was added into individual wells.
(§5) As a positive control, we set up wells with 100 µL of the bacterial culture and 100 µL of the sterile LB medium. […] Negative-control wells contained 200 µL of the sterile medium. The plates were incubated in a thermostat for 18–20 h at 37 °C. The bacterial growth was assessed as optical density at 600 nm on a CLARIOstar microplate reader (BMG LABTECH GmbH, Ortenberg, Germany)).

[6] = system: P. aeruginosa GIMC5016:PA1840/36/2015; assay: as above
Experimental: as §3, §4, §5

[7] = IC50 (uM), bCSE enzymatic IC50, rounded, repeated in Table S13
[8] = IC50 (uM), bCSE enzymatic IC50, rounded, repeated in Table S14
[9] = IC50 biochemical assay bCSE, purified bCSE 0.02 μM, 100 μM L-cysteine, WSP5 probe, mean ± SD
[10] = purified hCSE 0.02 μM, 100 μM L-cysteine, WSP5 probe, mean ± SD; read-out: IC50 biochemical assay hCSE
[11] = A. baumannii GIMC5509:ABT-52Ts19, potentiator 50 µg/mL
[12] = P. aeruginosa GIMC5016:PA1840/36/2015, potentiator 50 µg/mL

Sequence of S. aureus cystathionine-γ-lyase (bCSE) (A0A0H3K724 entry or part of it): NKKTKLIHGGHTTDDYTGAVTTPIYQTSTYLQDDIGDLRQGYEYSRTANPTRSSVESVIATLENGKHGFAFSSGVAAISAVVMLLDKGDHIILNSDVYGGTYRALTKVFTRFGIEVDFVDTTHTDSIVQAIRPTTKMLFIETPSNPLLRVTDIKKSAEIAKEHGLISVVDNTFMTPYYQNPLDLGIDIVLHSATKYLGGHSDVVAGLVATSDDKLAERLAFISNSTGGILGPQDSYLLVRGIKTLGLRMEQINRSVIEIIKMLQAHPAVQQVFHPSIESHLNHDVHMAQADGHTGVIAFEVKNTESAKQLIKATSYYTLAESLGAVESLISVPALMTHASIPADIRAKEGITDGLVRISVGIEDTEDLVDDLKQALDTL

Compound | activity toward bCSE (in words) [1] | activity toward hCSE (in words) [2] | IC50 ([2]; read-out: IC50 biochemical assay hCSE; purified hCSE 0.02 μM, 100 μM L-cysteine, WSP5 probe, mean ± SD) [µM] | CC50 [3] [µM] | IC50 [1, 7] [µM] | IC50 [1, 8] [µM] | IC50 ([1]; IC50 (uM), bCSE enzymatic IC50, rounded, repeated in Table S15) [µM] | IC50 [1, 9] [µM] | IC50 [2, 10] [µM] | Ki [4] [µM] | MIC of Tacillin in combination with potentiator ([5]; A. baumannii GIMC5509:ABT-52Ts19, piperacillin + tazobactam, potentiator 50 µg/mL) [µg/mL] | MIC of Cefepim in combination with potentiator [5, 11] [µg/mL] | MIC of Meropenem in combination with potentiator [5, 11] [µg/mL] | MIC of Tacillin in combination with potentiator ([6]; P. aeruginosa GIMC5016:PA1840/36/2015, piperacillin + tazobactam, potentiator 50 µg/mL) [µg/mL] | MIC of Cefepim in combination with potentiator [6, 12] [µg/mL] | MIC of Gentamicin in combination with potentiator [6, 12] [µg/mL] | MIC of Meropenem in combination with potentiator [6, 12] [µg/mL]
O=C([O-])c1cn(Cc2cccc3ccccc23)c2ccccc12.[Na+] [Compound 1c] | did not show noticeable activity | did not show noticeable activity | > 500 | 308 ± 75.5 | – | – | – | – | – | – | – | – | – | – | – | – | –
O=C(O)c1ccc2ccn(Cc3cccc4ccccc34)c2c1 [Compound 4a] | – | – | – | 392 ± 21.8 | 138 | 138 | 138 | 138 ± 9 | > 500 | – | – | – | – | – | – | – | –
Cc1oc(Cn2ccc3ccc(Br)cc32)cc1C(=O)O [NL2, 5-((6-bromo-1H-indol-1-yl)methyl)-2-methylfuran-3-carboxylic acid] | – | – | – | – | 144 | 144 | – | 144 ± 9 | > 500 | 1.8 | 128 | 128 | 32 | 32 | 64 | > 512 | 8

Reference: publication PMC10671052, “Naphthyl-Substituted Indole and Pyrrole Carboxylic Acids as Effective Antibiotic Potentiators—Inhibitors of Bacterial Cystathionine γ-Lyase” (International Journal of Molecular Sciences, 2023)
